Test results published in ChEMBL document CHEMBL1147246, “Flavonoids from Dalbergia louvelii and their antiplasmodial activity” (J Nat Prod, 2003).
The source made the active and inactive calls. The rule behind the calls is not given here.

What follows are compounds tested on Plasmodium falciparum (assay: Antiplasmodial activity after 18 hrs against chloroquine-resistant Plasmodium falciparum FcB1 in human blood by [3H]hypoxanthine uptake).
Type: functional, organism-based

SMILES	IC50 [µM]	Activity
COc1cc2c(cc1O)[C@@H](C)[C@H](c1ccccc1)O2 [OBTUSAFURAN]	8.7	
COC1=CC(=O)C(O)=CC12CCCc1cc(O)ccc12 (stereo not drawn)		inactive
COc1cc(O)c([C@@H]2COc3cc(O)ccc3C2=O)cc1OC		inactive
COc1cc(-c2cc3ccc(O)cc3oc2=O)c(O)cc1O		inactive
C=C[C@@H](C1=CC(=O)C(OC)=CC1=O)c1ccccc1	5.8	
O=C(/C=C/c1ccc(O)cc1)c1ccc(O)cc1O [ISOLIQUIRITIGENIN]	7.8	
COc1cc(-c2coc3cc(O)ccc3c2=O)ccc1O	6.8	
COc1cc(CCCc2cccc(O)c2)c(OC)cc1O		inactive
